Eleven compounds from patent publication US20250170266A1 (ZYMEWORKS BC INC., priority 2022, published 2025) can be followed below.

Holding throughout (type): cell-based
The subject of assay [1] is Human peripheral blood mononuclear cells (PBMCs). The experiment in a line: Human PBMC Assay, cytokine release (HTRF). The settings on record: PBMC, 24 hours. In short, it runs like this:
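Cryopreserved human PBMCs, rested overnight with 10 ng/ml hIL3, then 300,000 cells/well treated 24 h at 37° C with compound (4-fold, 11-point titration from 15 μM) in RPMI+10% FBS. Supernatant hIL6, hTNFα and hIFNα measured by HTRF; growth medium as negative control.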

The next assay deals with T1, mTLR7 (Mus musculus, UniProt P58681).
T1 construct: host or cells: HEK-Blue mTLR7 reporter cells (HEK293-derived, own knowledge)
T1 sequence (P58681 27-1050): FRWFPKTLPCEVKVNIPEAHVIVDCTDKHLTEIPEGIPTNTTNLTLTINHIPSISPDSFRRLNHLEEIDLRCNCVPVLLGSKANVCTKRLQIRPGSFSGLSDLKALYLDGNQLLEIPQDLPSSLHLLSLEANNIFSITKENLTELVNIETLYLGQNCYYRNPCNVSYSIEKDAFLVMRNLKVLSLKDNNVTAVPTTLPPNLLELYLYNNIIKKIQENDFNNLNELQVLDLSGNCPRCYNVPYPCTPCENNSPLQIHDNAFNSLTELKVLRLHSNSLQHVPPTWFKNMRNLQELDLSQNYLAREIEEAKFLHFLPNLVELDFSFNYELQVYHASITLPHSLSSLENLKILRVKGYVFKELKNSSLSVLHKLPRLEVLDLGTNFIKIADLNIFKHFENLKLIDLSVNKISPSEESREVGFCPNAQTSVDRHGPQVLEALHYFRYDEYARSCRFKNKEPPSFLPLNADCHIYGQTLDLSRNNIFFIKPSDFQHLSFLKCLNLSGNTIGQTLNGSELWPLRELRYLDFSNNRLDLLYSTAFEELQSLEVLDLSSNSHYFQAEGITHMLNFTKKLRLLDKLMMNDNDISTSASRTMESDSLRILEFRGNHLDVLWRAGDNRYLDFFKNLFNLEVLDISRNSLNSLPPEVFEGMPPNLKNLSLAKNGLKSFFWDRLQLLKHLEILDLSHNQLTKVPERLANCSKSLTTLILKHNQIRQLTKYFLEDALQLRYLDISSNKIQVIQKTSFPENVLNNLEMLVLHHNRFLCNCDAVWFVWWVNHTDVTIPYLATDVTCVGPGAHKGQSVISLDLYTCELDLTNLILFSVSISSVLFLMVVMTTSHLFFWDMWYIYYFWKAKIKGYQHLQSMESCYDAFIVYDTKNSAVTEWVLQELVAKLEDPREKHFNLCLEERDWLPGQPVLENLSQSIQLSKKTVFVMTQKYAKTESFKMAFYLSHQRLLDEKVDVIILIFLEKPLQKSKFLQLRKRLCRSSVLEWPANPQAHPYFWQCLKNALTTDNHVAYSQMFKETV
The experiment in a line: Reporter Gene Assay (RGA), HEK-Blue mTLR7 reporter cells, SEAP readout. The settings on record: overnight incubation, SEAP absorbance 620 nm. In short, it runs like this:
(§1)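 HEK-Blue reporter cells expressing human or mouse TLR7 (1.5×10^4 cells) were treated with an 11-point, 4-fold compound titration from 15 pM in HEK-Blue Detection medium. Incubation was overnight at 37° C with 5% CO2. Secreted embryonic alkaline phosphatase was read as absorbance at 620 nm.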

The target in another assay is T2, hTLR7 (Homo sapiens, UniProt Q9NYK1).
T2 construct: host or cells: HEK-Blue hTLR7 reporter cells (HEK293-derived, own knowledge)
T2 sequence (Q9NYK1 27-1049): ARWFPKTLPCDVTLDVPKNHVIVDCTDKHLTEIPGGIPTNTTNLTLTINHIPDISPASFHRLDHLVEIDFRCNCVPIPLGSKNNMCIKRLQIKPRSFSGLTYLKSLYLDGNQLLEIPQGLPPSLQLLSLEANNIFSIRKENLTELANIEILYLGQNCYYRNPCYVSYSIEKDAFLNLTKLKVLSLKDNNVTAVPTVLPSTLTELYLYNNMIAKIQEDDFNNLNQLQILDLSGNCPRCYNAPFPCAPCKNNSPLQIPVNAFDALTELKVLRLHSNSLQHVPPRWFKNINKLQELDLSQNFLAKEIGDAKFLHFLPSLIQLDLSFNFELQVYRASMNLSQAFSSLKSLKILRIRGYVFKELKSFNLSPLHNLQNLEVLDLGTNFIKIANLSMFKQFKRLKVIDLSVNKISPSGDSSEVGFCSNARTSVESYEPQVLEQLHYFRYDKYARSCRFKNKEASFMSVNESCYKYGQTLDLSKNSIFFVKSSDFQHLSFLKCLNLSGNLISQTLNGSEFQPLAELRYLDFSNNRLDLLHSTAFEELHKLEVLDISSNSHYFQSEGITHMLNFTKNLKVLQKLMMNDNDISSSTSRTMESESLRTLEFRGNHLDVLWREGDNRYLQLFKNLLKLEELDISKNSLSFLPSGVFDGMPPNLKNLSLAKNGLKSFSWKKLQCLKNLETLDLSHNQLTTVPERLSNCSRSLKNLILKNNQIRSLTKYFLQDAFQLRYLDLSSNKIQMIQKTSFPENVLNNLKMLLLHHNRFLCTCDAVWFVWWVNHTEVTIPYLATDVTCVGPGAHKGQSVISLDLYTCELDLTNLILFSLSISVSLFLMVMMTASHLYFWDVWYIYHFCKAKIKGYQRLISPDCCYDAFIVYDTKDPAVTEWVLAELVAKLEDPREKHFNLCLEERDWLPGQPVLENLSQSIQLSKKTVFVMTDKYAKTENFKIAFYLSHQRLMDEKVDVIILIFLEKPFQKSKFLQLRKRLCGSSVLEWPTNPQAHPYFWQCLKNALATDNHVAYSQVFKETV
The assay can be described thus: Reporter Gene Assay (RGA), HEK-Blue hTLR7 reporter cells, SEAP readout. The settings on record: overnight incubation, SEAP absorbance 620 nm. In short, it runs like this:
as §1

The subject of a further assay is Mouse splenocytes. The assay can be described thus: Mouse Splenocyte Assay, cytokine release (HTRF). The note with it: 24 hours, mIL6 in supernatant; for EC50: Splenocyte, read-out: Splenocyte IL6 EC50. The protocol:
Mouse splenocytes were isolated from fresh mouse spleens. Briefly, spleens were harvested from female balb/c nude mice and transferred to a 70 μm cell strainer. The cell strainer was subsequently placed in a 6-well suspension culture plate containing 5 mL media (RPMI+10% FBS). The spleens were crushed against the cell strainer using the flat end of a 10 mL syringe plunger and the cell strainer was washed with 5 mL media. The cell strainer was discarded, and the cell suspension was washed in PBS. Red blood cells were removed using PharmaLyse (BD). The cell suspension was washed in media, resuspended in CryoStor® CS10 ([…]) and frozen. On assay day, mouse splenocytes were thawed in warm assay buffer (RPMI+10% FBS). Cells were spun down and resuspended in fresh assay buffer. 100,000 cells were added to each well of plates containing test compound. For test compound preparation, each compound was initially diluted to 1 mM in DMSO and further diluted in assay buffer. A 4-fold 11-point titration starting from 15 μM was performed. Cells were incubated with test compound at 37° C.+5% CO2 for 24 hours before supernatant was harvested. Murine IL6 (mIL6) and murine TNFα (mTNFα) were quantified in the supernatant using homogeneous time resolved fluorescence (Cisbio).
Each assay included a positive control compound (referred to herein as “benchmark,” see, e.g., TABLE 3 below, and taken from International Patent Publication No. WO2017/072662, structure shown below) and a negative control (growth medium). […] The structure of the benchmark compound from International Patent Publication No. WO 2017/072662 is as follows: […]

[2] abbreviates: hIFNα in supernatant, EC50 values approximated and divided into groups, read-out: PBMC IFNa EC50.
Where [3] appears, read: hIL6 in supernatant, read-out: PBMC IL6 EC50.

SMILES strings stand for the structures. Where two headings read alike, the source gives them in different places. A value given as a limit tells only on which side of the number the result lay.

`CCOc1nc(N)c2nc(O)n(Cc3ccc(CNCCC(=O)N[C@@H](Cc4c[nH]cn4)C(=O)O)cc3OC)c2n1` [Compound 116, (3-((4-((6-amino-2-ethoxy-8-hydroxy-9H-purin-9-yl)methyl)-3-methoxybenzyl)-amino)-propanoyl)-L-histidine]: the EC50 was over 10 nM in assay [1] (setting [2]); 3080 nM in assay [1] (setting [3]); 1020 nM at mTLR7; 184 nM on hTLR7; 2180 nM in the assay on Mouse splenocytes.

Turning to `CCOc1nc(N)c2nc(O)n(Cc3ccc(CN[C@H](CO)Cc4ccccc4)cc3OC)c2n1` [Compound 118, (S)-6-amino-2-ethoxy-9-(4-(((1-hydroxy-3-phenylpropan-2-yl)amino)methyl)-2-methoxybenzyl)-9H-purin-8-ol], the EC50 in assay [1] (setting [2]) was 0.1 to 1 nM; in assay [1] (setting [3]), 1400 nM; on mTLR7, 11.4 nM; at hTLR7, 2.04 nM; in the assay with Mouse splenocytes, 639 nM.

Turning to `CCOc1nc(N)c2nc(O)n(Cc3ccc(CN[C@@H](CO)C(=O)O)cc3OC)c2n1` [Compound 119, (4-((6-amino-2-ethoxy-8-hydroxy-9H-purin-9-yl)methyl)-3-methoxybenzyl)-L-serine], the 50% effective concentration (EC50) was over 10 nM in assay [1] (setting [2]); 3910 nM in assay [1] (setting [3]); 1960 nM on mTLR7; 259 nM on hTLR7; at least 1000 nM with Mouse splenocytes.

In the case of `CCOc1nc(N)c2nc(O)n(Cc3ccc(CN(CC(=O)O)CC(=O)O)cc3OC)c2n1` [Compound 120, 2,2′-((4-((6-amino-2-ethoxy-8-hydroxy-9H-purin-9-yl)methyl)-3-methoxy-benzyl)azanediyl) diacetic Acid], the EC50 in assay [1] (setting [2]) was over 10 nM; in assay [1] (setting [3]), 524 nM; at mTLR7 it was 637 nM; at hTLR7, 33.2 nM; in the assay on Mouse splenocytes, 881 nM.

For `CCOc1nc(N)c2nc(O)n(Cc3ccc(CN[C@H](C(=O)O)[C@@H](C)CC)cc3OC)c2n1` [Compound 121, (4-((6-amino-2-ethoxy-8-hydroxy-9H-purin-9-yl)methyl)-3-methoxybenzyl)-L-isoleucine], the 50% effective concentration (EC50) in assay [1] (setting [2]) is over 10 nM; in assay [1] (setting [3]) it was 13300 nM; on mTLR7, 772 nM; at hTLR7 it was 343 nM; with Mouse splenocytes it was at least 1000 nM.

`CCOc1nc(N)c2nc(O)n(Cc3ccc(CN[C@H](CO)[C@@H](C)CC)cc3OC)c2n1` [Compound 122, 6-amino-2-ethoxy-9-(4-((((2S,3S)-1-hydroxy-3-methylpentan-2-yl)amino)-methyl)-2-methoxybenzyl)-9H-purin-8-ol]: the EC50 is 0.1 to 1 nM in assay [1] (setting [2]); 279 nM in assay [1] (setting [3]); 10.2 nM on mTLR7; 9 nM at hTLR7; 66.1 nM in the assay on Mouse splenocytes.

`CCOc1nc(N)c2nc(O)n(Cc3ccc(CN)cc3OC)c2n1` [Compound 123, 6-amino-9-(4-(aminomethyl)-2-methoxybenzyl)-2-ethoxy-9H-purin-8-ol]: the EC50 in assay [1] (setting [2]) is 1 to 10 nM; in assay [1] (setting [3]), 684 nM; on mTLR7, 146 nM; on hTLR7, 30.7 nM; in the assay with Mouse splenocytes it was 145 nM.

Regarding `CCNCc1ccc(Cn2c(O)nc3c(N)nc(OCC)nc32)c(OC)c1` [Compound 124, 6-amino-2-ethoxy-9-(4-((ethylamino)methyl)-2-methoxybenzyl)-9H-purin-8-ol], the EC50 in assay [1] (setting [2]) is 0.1 to 1 nM; in assay [1] (setting [3]) it was 674 nM; on mTLR7 it was 33.5 nM; on hTLR7 it was 5.4 nM; in the assay on Mouse splenocytes it was 744 nM.

As to `CCCN(CCC)Cc1ccc(Cn2c(O)nc3c(N)nc(OCC)nc32)c(OC)c1` [Compound 125, 6-amino-9-(4-((dipropylamino)methyl)-2-methoxybenzyl)-2-ethoxy-9H-purin-8-ol], the concentration for a half-maximal effect (EC50) in assay [1] (setting [2]) was 1 to 10 nM; in assay [1] (setting [3]), 2230 nM; at mTLR7 it was 4.3 nM; at hTLR7, 0.5 nM; in the assay on Mouse splenocytes, 171 nM.

`CCOc1nc(N)c2nc(O)n(Cc3ccc(CN4C[C@@H]5C[C@H]4CN5)cc3OC)c2n1` [Compound 128, 9-(4-(((1S,4S)-2,5-diazabicyclo[2.2.1]heptan-2-yl)methyl)-2-methoxybenzyl)-6-amino-2-ethoxy-9H-purin-8-ol]: the half-maximal effective concentration (EC50) in assay [1] (setting [2]) was 1 to 10 nM; in assay [1] (setting [3]), 167 nM; at mTLR7, 443 nM; on hTLR7 it was 18.2 nM. The “Splenocyte IL6 EC50 (nM)” value with Mouse splenocytes is “inactive”.

In the case of `CCOc1nc(N)c2nc(O)n(Cc3ccc(CN4CCC(CN)CC4)cc3OC)c2n1` [Compound 132, 6-amino-9-(4-((4-(aminomethyl)piperidin-1-yl)methyl)-2-methoxybenzyl)-2-ethoxy-9H-purin-8-ol], the EC50 in assay [1] (setting [2]) was over 10 nM; in assay [1] (setting [3]), 116 nM; on mTLR7 it was 65.1 nM; at hTLR7, 5.8 nM; in the assay with Mouse splenocytes, 234 nM.
